Data on 2 molecules can be found in ChEMBL document CHEMBL1201862, “PubChem BioAssay data set” (2004).

The target in test [1] is T1, Replicative DNA helicase DnaB (Mycobacterium tuberculosis, UniProt P9WMR3).
T1 sequence (P9WMR3 whole entry): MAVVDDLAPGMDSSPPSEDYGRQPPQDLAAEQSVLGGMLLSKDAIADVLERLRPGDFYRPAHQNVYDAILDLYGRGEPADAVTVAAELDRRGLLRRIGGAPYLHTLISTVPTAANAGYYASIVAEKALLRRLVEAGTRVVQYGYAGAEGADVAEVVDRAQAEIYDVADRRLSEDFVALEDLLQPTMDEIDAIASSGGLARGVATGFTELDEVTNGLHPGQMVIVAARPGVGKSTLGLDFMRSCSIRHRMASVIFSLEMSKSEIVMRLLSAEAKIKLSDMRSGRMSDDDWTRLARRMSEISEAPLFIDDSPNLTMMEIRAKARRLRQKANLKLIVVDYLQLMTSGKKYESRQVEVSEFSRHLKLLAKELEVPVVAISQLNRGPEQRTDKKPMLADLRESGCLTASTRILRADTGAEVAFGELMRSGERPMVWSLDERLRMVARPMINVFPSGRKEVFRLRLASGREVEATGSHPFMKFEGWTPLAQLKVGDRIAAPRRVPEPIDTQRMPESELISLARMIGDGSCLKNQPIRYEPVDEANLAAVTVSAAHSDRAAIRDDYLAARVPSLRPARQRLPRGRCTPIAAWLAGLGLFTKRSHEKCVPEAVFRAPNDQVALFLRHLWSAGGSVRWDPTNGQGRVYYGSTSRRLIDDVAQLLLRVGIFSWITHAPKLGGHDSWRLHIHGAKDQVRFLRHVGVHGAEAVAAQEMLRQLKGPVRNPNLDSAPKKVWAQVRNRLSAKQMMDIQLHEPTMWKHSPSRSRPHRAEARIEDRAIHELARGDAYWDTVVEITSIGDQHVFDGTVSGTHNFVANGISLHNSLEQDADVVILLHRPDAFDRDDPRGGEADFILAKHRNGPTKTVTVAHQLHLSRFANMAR
Put plainly: DnaB intein splicing inhibitors, dose response, biochemical, cell-free fluorescence (AID 449749). The class given is functional.

The target of the next test is T2, Protein RecA (Mycobacterium tuberculosis, UniProt P9WHJ3).
T2 sequence (P9WHJ3 whole entry): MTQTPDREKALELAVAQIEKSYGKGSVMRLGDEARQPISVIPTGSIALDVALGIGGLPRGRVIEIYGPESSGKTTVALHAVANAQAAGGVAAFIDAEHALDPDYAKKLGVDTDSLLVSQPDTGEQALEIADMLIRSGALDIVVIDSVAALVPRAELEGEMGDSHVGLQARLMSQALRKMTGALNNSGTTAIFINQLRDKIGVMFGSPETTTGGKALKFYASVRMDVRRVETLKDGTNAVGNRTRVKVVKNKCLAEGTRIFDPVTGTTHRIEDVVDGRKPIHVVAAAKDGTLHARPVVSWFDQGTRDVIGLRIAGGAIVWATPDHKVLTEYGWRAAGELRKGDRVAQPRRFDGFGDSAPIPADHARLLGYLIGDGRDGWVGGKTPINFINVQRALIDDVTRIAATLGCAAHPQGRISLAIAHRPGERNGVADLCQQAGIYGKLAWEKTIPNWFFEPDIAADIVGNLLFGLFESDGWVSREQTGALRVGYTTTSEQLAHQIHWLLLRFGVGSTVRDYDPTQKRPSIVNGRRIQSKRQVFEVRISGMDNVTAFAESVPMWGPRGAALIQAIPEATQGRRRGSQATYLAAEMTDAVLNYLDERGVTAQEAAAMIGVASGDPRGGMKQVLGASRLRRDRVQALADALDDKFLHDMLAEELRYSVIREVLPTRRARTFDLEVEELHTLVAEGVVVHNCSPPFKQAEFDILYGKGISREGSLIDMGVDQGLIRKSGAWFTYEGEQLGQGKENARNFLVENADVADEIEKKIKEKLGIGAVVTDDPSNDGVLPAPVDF
The test is described as follows: Fluorescence Cell-Free Homogeneous Dose Retest to Identify Inhibitors of RecA-Intein Splicing Activity. [Related pubchem assays (depositor defined):AID2097, AID2223, AID489010, AID492950]. It counts as functional.

The target of test [2] is T3, Heat shock factor protein 1 (Mus musculus, UniProt P38532).
T3 sequence (P38532 whole entry): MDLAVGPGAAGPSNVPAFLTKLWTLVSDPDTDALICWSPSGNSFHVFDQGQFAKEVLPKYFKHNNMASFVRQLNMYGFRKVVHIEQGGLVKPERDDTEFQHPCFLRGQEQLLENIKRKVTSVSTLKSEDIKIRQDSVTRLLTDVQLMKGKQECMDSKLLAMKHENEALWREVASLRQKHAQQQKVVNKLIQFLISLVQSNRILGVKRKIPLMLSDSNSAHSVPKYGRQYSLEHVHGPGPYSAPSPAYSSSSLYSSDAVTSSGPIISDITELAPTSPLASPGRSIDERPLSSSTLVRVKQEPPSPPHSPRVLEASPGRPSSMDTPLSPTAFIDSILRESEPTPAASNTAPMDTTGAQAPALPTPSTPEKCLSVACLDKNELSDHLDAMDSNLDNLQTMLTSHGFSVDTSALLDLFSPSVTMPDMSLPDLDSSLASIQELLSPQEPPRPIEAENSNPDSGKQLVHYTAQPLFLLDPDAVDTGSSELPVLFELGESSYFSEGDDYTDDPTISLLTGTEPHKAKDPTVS
Put plainly: HSF1 potentiators in luciferase reporter cells, confirmation, cell-based, NIH3T3, luminescence, dose retest (AID 435004).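 Note: stress induced by proteasome inhibitor MG132 added 30 min after compound; luciferase reporter driven by HSF1 response element in NIH3T3 cells; actives raise luminescence as potentiators of the MG132 stress response.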 The class given is functional. In general terms: A reporter such as luciferase makes a cellular process visible.

A short description of test [3]: inhibitors of PGC1a acetylation in cells, dose response, cell-based, cherry-picked samples (AID 720514).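 Note: potency may reflect raised or lowered acetylation signal.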 It counts as functional.
Test [4] is described as follows: Luminescence-based cell-based high throughput dose response assay to identify activators of the DAF-12 from the parasite S. stercoralis (ssDAF-12). The class given is functional.
Test [5] has as its target T4, Oxysterols receptor LXR-beta (Homo sapiens, UniProt P55055).
T4 sequence (P55055 whole entry): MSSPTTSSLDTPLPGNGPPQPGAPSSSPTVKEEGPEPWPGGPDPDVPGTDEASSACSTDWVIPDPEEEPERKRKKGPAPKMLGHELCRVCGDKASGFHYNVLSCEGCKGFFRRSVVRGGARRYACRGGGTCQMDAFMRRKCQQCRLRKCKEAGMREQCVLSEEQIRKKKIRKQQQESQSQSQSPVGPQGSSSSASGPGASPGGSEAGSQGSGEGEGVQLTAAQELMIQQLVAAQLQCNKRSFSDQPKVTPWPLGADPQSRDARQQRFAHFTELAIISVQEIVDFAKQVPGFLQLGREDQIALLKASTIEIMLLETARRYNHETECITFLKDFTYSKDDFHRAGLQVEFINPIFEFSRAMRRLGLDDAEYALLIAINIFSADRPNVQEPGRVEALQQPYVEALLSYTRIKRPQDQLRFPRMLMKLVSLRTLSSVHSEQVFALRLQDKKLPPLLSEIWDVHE
The test is described as follows: LXR agonists, Gal4 luciferase reporter, dose response, counter-screen for ssDAF-12 agonist project, cell-based, luminescence, HEK293, S. stercoralis campaign (AID 720737). The class given is functional. The settings on record: read-out: IC50 (the source's name).

The target of the next test is T5, Caspase-3 (Homo sapiens, UniProt P42574).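 Note: Dose-response selectivity test against caspase-3 for candidate inhibitors of sentrin-specific proteases (SENPs).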
T5 sequence (P42574 whole entry): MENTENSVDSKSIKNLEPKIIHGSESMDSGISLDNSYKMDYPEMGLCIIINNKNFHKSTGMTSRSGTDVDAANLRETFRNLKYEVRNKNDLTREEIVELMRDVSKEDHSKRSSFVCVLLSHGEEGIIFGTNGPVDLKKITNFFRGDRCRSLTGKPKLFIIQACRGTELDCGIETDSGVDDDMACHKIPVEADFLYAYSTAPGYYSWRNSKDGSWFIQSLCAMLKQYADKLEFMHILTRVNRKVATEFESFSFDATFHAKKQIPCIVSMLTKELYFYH
It counts as functional.

Test [6] concerns the target T6, Sentrin-specific protease 8 (Homo sapiens, UniProt Q96LD8).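 Note: luminescence read-out of SENP8 inhibition, dose-response confirmation following an ultra-high-throughput screen.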
T6 sequence (Q96LD8 whole entry): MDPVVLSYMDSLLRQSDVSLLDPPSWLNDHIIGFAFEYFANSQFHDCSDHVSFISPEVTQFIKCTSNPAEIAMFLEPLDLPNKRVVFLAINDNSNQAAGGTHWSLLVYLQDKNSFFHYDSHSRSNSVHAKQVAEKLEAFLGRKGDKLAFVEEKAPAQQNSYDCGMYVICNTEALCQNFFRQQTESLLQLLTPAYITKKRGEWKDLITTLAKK
The class given is functional.

Test [7] concerns the target T4, Oxysterols receptor LXR-beta. It counts as functional, cell-based.
For test [8], the target named is T7, Sentrin-specific protease 6 (Homo sapiens, UniProt Q9GZR1).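 Note: Luminescence-based dose-response confirmatory assay of SENP6 inhibition, following up an ultra-high-throughput screen.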
T7 sequence (Q9GZR1 whole entry): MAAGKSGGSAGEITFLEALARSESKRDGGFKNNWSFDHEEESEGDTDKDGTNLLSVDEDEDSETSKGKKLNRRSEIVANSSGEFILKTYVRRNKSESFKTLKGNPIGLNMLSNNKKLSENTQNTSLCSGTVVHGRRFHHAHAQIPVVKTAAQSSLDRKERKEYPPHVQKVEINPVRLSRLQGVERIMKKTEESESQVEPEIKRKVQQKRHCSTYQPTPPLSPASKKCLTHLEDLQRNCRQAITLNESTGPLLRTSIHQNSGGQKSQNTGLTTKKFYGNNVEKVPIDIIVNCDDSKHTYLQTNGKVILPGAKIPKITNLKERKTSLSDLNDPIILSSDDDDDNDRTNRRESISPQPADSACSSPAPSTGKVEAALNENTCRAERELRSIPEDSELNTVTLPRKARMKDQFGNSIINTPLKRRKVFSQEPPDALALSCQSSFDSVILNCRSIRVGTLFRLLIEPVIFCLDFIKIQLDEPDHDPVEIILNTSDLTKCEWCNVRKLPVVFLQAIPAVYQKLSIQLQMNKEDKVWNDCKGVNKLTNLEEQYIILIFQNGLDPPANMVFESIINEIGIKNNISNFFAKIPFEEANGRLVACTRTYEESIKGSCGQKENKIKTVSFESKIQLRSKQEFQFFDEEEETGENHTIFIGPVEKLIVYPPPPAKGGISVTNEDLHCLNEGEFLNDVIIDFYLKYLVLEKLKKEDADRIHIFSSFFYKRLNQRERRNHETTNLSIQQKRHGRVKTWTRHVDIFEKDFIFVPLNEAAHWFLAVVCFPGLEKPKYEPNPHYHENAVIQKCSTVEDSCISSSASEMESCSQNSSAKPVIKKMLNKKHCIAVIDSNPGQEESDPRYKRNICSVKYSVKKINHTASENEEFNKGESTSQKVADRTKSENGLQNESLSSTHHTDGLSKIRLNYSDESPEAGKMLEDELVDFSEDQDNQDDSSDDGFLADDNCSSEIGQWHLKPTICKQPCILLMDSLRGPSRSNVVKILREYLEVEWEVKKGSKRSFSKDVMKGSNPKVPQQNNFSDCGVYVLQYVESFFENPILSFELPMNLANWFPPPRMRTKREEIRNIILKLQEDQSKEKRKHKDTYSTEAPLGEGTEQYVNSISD
It counts as functional.

In test [9] the target is T8, Sentrin-specific protease 7 (Homo sapiens, UniProt Q9BQF6).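 Note: Luminescence-based dose-response confirmation of ultra-high-throughput screening hits, measuring inhibition of SENP7.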
T8 sequence (Q9BQF6 whole entry): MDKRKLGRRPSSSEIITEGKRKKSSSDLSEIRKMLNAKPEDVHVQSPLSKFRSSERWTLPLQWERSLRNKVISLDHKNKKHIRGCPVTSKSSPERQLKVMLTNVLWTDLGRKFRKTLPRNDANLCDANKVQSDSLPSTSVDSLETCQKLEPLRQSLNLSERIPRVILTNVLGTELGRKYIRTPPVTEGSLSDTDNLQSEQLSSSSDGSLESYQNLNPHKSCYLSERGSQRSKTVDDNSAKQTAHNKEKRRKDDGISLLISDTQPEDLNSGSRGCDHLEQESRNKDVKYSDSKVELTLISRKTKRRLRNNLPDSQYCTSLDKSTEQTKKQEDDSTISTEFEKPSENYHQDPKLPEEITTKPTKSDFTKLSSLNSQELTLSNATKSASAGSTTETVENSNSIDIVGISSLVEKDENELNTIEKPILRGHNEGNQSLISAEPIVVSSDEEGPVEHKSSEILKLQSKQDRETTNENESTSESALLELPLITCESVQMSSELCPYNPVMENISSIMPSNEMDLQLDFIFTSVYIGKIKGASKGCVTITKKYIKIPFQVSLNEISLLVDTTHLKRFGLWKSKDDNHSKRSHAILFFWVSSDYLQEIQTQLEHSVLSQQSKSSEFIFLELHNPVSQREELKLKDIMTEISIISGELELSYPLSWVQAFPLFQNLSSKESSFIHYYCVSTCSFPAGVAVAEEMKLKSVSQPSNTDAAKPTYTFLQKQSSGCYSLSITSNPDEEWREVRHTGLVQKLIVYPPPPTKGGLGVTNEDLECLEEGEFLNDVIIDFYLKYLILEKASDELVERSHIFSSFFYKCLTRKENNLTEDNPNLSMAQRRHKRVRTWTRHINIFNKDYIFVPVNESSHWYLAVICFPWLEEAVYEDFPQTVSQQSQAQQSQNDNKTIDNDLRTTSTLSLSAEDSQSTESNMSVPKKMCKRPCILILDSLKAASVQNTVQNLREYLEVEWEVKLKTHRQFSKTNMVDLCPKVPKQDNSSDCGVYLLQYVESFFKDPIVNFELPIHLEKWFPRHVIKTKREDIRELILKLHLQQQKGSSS
It counts as functional.

Calls of active or inactive are those of the source. A value given as a limit tells only on which side of the number the result lay.

As to `O=S(=O)(c1ccccc1)c1ncc(C(F)(F)F)cc1Cl`, the half-maximal activity concentration (AC50) was 18.4 µM (active) in test [1] and 11 µM (active) in [3]. Also, the EC50 on Protein RecA was 3.16 µM (active); in test [2], 15.9 µM (active).
On to `Cc1ccc(Nc2nc(-c3cccnc3)cs2)cc1C`, for which the IC50 in test [4] was > 67.6 µM (inactive); on Caspase-3, 34.4 µM (active); in test [6] it was 7.16 µM (active); in test [8] it was 7.01 µM (active); in [9], 5.02 µM (active). Further, the EC50 (in test [5]; in test [7]; in “cells”) was > 67.6 µM (inactive) in each case.

As usually defined, the AC50 is the midpoint of the concentration-response curve, whichever way the signal moves. In general, IC50 refers to the concentration needed to halve the response being measured.
